Data as given in US20240009165A1, “GRISEOFULVIN AS AN ADJUNCT DRUG FOR THE TREATMENT OF CEREBRAL AND SEVERE MALARIA” (priority 2020, published 2024).

Key:
[1] = test system: P. berghei ANKA; experiment: Cerebral malaria (CM) protection and mortality of PbWT-infected mice treated with griseofulvin; format: in vivo
From the text: The present invention evaluated the potential of griseofulvin in preventing CM and treated WT-infected C57BL/6 mice from day 4 when the blood parasitemia was around 2%, and examined for CM pathogenesis. […] While ˜80% of the control mice succumbed to CM within day 10, more than 80% of the griseofulvin-treated mice were protected from CM. […] While the anemia mortality in CM-escaped control mice occurred within day 17, more than 80% of the griseofulvin-treated mice could survive beyond day 20 with almost 50% of them surviving even beyond day 24. […] To confirm that the CM protection is due to inhibition of parasite heme synthesis, the present invention analyzed heme synthesis in griseofulvin-treated and -untreated WT parasites by incubating the in vivo-treated pRBCs in vitro with ^14C-ALA (committed precursor of heme synthesis) for 9 h. There was around 60% decrease in the ^14C-labelling of free heme in griseofulvin-treated parasites. […] As observed for the KO parasites, the total Hz content in the griseofulvin-treated parasites was around 50-60% less when compared with untreated parasites and there was also close to 60% decrease in the free heme levels.
(§1) Routine propagation of P. berghei in mice and CM experiments. P. berghei ANKA WT and KO parasites were propagated in C57BL/6 male/female mice of 7-8 weeks old. Peripheral blood parasitemia was monitored by performing light microscopy for Giemsa stained thin blood smears prepared from tail vein blood. When the blood parasitemia was around 10%, 10^5 P. berghei ANKA WT or 10^5/10^7 ALAS/FC KO parasites were collected and injected intraperitoneally in 7-8 weeks old C57BL/6 male/female naïve mice to initiate CM experiments. Growth curve analysis was carried out by monitoring the blood parasitemia. The development and progression of ECM were monitored by examining RMCBS for neurological symptoms. To assess BBB integrity, Evans blue uptake assays were carried out by injecting 200 μl of 2% Evans blue in PBS intravenously and examining the extravasation of dye after one hour in the brain of the infected mice that were transcardially perfused with PBS. The extent of BBB damage was quantified by incubating the brain samples in formamide at 37° C. for 48 h, extracting the Evans blue and measuring the absorbance at 620 nm.
Griseofulvin treatment in mice. Griseofulvin was prepared by dissolving 1 or 2 mg in 40 μl DMSO and then making up the volume to 200 μl with 10% solutol HS 15 in saline. The mixture was vortexed thoroughly for 10 min to form an emulsion and injected intraperitoneally into the mice. All single dose injections were carried out at 06:00 h and double dose injections were carried out at 06:00 h and 18:00 h for the respective days. […]

[2] = test system: P. berghei ANKA; experiment: Growth curve analysis (peripheral blood parasitemia) in treated mice; format: in vivo; details: 2 mg dose per day on day 4, 5, 6, 7 and 8; C57BL/6 mice
From the text: The present invention evaluated the potential of griseofulvin in preventing CM and treated WT-infected C57BL/6 mice from day 4 when the blood parasitemia was around 2%, and examined for CM pathogenesis. […] While ˜80% of the control mice succumbed to CM within day 10, more than 80% of the griseofulvin-treated mice were protected from CM. […] While the anemia mortality in CM-escaped control mice occurred within day 17, more than 80% of the griseofulvin-treated mice could survive beyond day 20 with almost 50% of them surviving even beyond day 24. […] To confirm that the CM protection is due to inhibition of parasite heme synthesis, the present invention analyzed heme synthesis in griseofulvin-treated and -untreated WT parasites by incubating the in vivo-treated pRBCs in vitro with ^14C-ALA (committed precursor of heme synthesis) for 9 h. […]
Routine propagation of P. berghei in mice and CM experiments. […] Peripheral blood parasitemia was monitored by performing light microscopy for Giemsa stained thin blood smears prepared from tail vein blood. […] The development and progression of ECM were monitored by examining RMCBS for neurological symptoms. […] The extent of BBB damage was quantified by incubating the brain samples in formamide at 37° C. for 48 h, extracting the Evans blue and measuring the absorbance at 620 nm. […]

[3] = test system: parasite heme synthesis; experiment: 14C-ALA labelling of free heme in in vivo-treated pRBCs; format: cell-based, P. berghei; details: in vivo-treated pRBCs incubated in vitro with 14C-ALA for 9 h; vs untreated WT parasites
From the text: The present invention evaluated the potential of griseofulvin in preventing CM and treated WT-infected C57BL/6 mice from day 4 when the blood parasitemia was around 2%, and examined for CM pathogenesis. […] While ˜80% of the control mice succumbed to CM within day 10, more than 80% of the griseofulvin-treated mice were protected from CM. […] While the anemia mortality in CM-escaped control mice occurred within day 17, more than 80% of the griseofulvin-treated mice could survive beyond day 20 with almost 50% of them surviving even beyond day 24. […]
Labelling studies with ^14C-ALA. […] For ^14C-ALA labelling, blood samples were collected from griseofulvin treated and control WT-infected mice around 16:00 h and the labelling was carried out for 9 h at a radioactivity of […]. […] The upper phase was separated, dried under nitrogen stream, dissolved in methanol and analysed by TLC on silica gel using the mobile phase 2,6-lutidine and water (5:3 v/v) in ammonia atmosphere. The intensity of radiolabelling was scanned using Biomolecular Imager by exposing the TLC sheets to phosphorimager screen and the radioactive counts were measured.

[4] = test system: P. berghei ANKA; experiment: Evans blue extravasation in the brain (BBB integrity); format: in vivo; details: griseofulvin-treated WT-infected mice; brain on day 8 post-infection
From the text: as §1

[5] = test system: P. berghei ANKA; experiment: Histochemical and immunofluorescence analyses of brain sections; format: in vivo; details: griseofulvin-treated WT-infected mice
Description: Histological and immunofluorescence analyses of cerebral pathology in the brain of infected mice. For H&E staining to assess vascular blockage, hemorrhages and demyelination, brain samples were fixed with formalin for 72 hours at room temperature. After dehydrating with ethanol and treating with xylene, paraffin embedded blocks were made and sections of 7 μm thickness were prepared using rotary microtome. The sections were then processed and stained with H&E using standard protocols. Immunohistochemical analysis of IgG extravasation in the brain sections was carried out as described. Brain sections of 30 μm thickness was antigen retrieved by treating them at 95° C. for 30 min in sodium citrate buffer pH 6.0, followed by blocking with 3% H2O2 at room temperature for 30 min to prevent endogenous peroxidase activity. The sections were then incubated with HRP-conjugated goat anti-mouse IgG at 1:250 dilution in PBS containing 0.3% Triton X-100 and 0.1% BSA, followed by developing with diaminobenzidine tetrahydrochloride and counterstaining with hematoxilin. Immunofluorescence analysis of brain sections for parasite sequestration was carried out by fixing the brain samples in 4% paraformaldehyde in PBS containing 20% sucrose for 24 h at 4° C. and cryoprotecting them for 48 h in PBS containing 20% sucrose. Coronal sections of 30 μm thickness was prepared using cryostat microtome and antigen retrieval was carried out by treating them at 95° C. for 30 min in sodium citrate buffer pH 9.0. After blocking with 1% BSA, the sections were incubated with anti-CD31 mouse monoclonal antibody conjugated with Alexa Fluor 594 and anti-PbGAPDH rabbit polyclonal serum or anti-mouse CD3 rat monoclonal antibody for 16 h at 4° C. The sections were then treated with FITC-conjugated donkey anti-rabbit IgG or FITC-conjugated goat anti-rat IgG (1:200 dilution), followed by 4′,6-diamidino-2-phenylindole (DAPI) staining. Anti-mouse β-APP rabbit polyclonal antibody was used in 1:200 dilution.

[6] = test system: hemozoin (Hz) formation; experiment: Hemozoin and free heme estimation in parasites; format: in vivo, P. berghei
Description: Heme, Hz, hemoglobin and hemopexin estimations. Free heme levels in the plasma samples of WT- and KO-infected mice were quantified using Hemin colorimetric assays. The assay is specific for free heme and it utilizes peroxidase activity of hemin to facilitate the conversion of a colorless probe to a strongly colored compound with absorbance at 570 nm. The quantification of free heme in the parasite lysates was carried out by resuspending the parasite pellets in 5 volumes of hypotonic lysis buffer containing 5 mM Tris pH 7.5 with protease inhibitors and incubating them in ice for 30 min. The lysates were then centrifuged at 20,000 g for 20 min, 4° C., and the supernatants obtained were used for free heme estimation as mentioned above for the plasma samples. The Hz content of the WT and KO parasite pellets was estimated as described. The parasite pellet was resuspended in 1 ml of 100 mM sodium acetate buffer, pH 5.0 and left at 37° C. for overnight, followed by centrifugation at 10,000 g for 5 min. The resultant pellet was resuspended in 100 mM Tris buffer pH 8.0 containing 2.5% SDS and incubated at 37° C. for 30 min, followed by centrifugation at 10,000 g for 5 min. The pellet obtained was washed once with 100 mM alkaline bicarbonate pH 9.2 and then with distilled water. The final Hz pellet was dissolved in 100 mM NaOH containing 2.5% SDS, and the absorbance was measured at 405 nm. The supernatants of sodium acetate and Tris SDS steps were collected to estimate the protein content by Micro BCA protein assay kit and heme content of the Hz was expressed per mg of total protein. […] After repeating this step thrice, the pellets were solubilized in 100 mM NaOH containing 2% SDS and 3 mM EDTA, and the absorbance was measured at 405 nm. In parallel, the parasite load in the organs was examined by quantitative PCR (qPCR) analysis carried out with Pb18SrRNA primers for the total RNA isolated from 30 mg tissue of the organs. […] Hemoglobin and hemopexin levels in the plasma samples of WT- and KO-infected mice were measured by ELISA.

[7] = test system: P. berghei ANKA; experiment: Plasma heme, hemopexin and hemoglobin estimation in infected mice; format: in vivo; details: griseofulvin-treated WT-infected mice
Description: Heme, Hz, hemoglobin and hemopexin estimations. Free heme levels in the plasma samples of WT- and KO-infected mice were quantified using Hemin colorimetric assays. The assay is specific for free heme and it utilizes peroxidase activity of hemin to facilitate the conversion of a colorless probe to a strongly colored compound with absorbance at 570 nm. The quantification of free heme in the parasite lysates was carried out by resuspending the parasite pellets in 5 volumes of hypotonic lysis buffer containing 5 mM Tris pH 7.5 with protease inhibitors and incubating them in ice for 30 min. The lysates were then centrifuged at 20,000 g for 20 min, 4° C., and the supernatants obtained were used for free heme estimation as mentioned above for the plasma samples. The Hz content of the WT and KO parasite pellets was estimated as described. The parasite pellet was resuspended in 1 ml of 100 mM sodium acetate buffer, pH 5.0 and left at 37° C. for overnight, followed by centrifugation at 10,000 g for 5 min. The resultant pellet was resuspended in 100 mM Tris buffer pH 8.0 containing 2.5% SDS and incubated at 37° C. for 30 min, followed by centrifugation at 10,000 g for 5 min. The pellet obtained was washed once with 100 mM alkaline bicarbonate pH 9.2 and then with distilled water. The final Hz pellet was dissolved in 100 mM NaOH containing 2.5% SDS, and the absorbance was measured at 405 nm. The supernatants of sodium acetate and Tris SDS steps were collected to estimate the protein content by Micro BCA protein assay kit and heme content of the Hz was expressed per mg of total protein. To estimate the Hz content in the spleen and liver of the WT- and KO-infected mice, 50 mg tissue of the respective organs was homogenized in 50 mM Tris pH 8.0 containing 50 mM NaCl, 5 mM CaCl2 and 1% Triton X-100, and incubated for 12 h at 37° C. in the presence of proteinase K. The lysates were sonicated and centrifuged at 15,000 g for 30 min. The pellets obtained were resuspended with 100 mM sodium bicarbonate containing 2% SDS and sonicated, followed by centrifugation at 15,000 g for 15 min. After repeating this step thrice, the pellets were solubilized in 100 mM NaOH containing 2% SDS and 3 mM EDTA, and the absorbance was measured at 405 nm. In parallel, the parasite load in the organs was examined by quantitative PCR (qPCR) analysis carried out with Pb18SrRNA primers for the total RNA isolated from 30 mg tissue of the organs. After normalizing with respect to the parasite load, the total heme content of the Hz isolated was expressed per mg weight of the organ. Hemoglobin and hemopexin levels in the plasma samples of WT- and KO-infected mice were measured by ELISA.

[8] = test system: Plasmodium falciparum; details: humans infected with Plasmodium falciparum; reference (34); cited from earlier work
[9] = test system: P. berghei ANKA; experiment: α,β-arteether alone or with griseofulvin in preventing CM in mice; format: in vivo
Description: Griseofulvin treatment in mice. Griseofulvin was prepared by dissolving 1 or 2 mg in 40 μl DMSO and then making up the volume to 200 μl with 10% solutol HS 15 in saline. The mixture was vortexed thoroughly for 10 min to form an emulsion and injected intraperitoneally into the mice. All single dose injections were carried out at 06:00 h and double dose injections were carried out at 06:00 h and 18:00 h for the respective days. Control mice were injected with the solvent. α,β-arteether (E MAL) was administered intramuscularly. For experiments involving the combination of α,β-arteether and griseofulvin, α,β-arteether was administered intramuscularly at 06:00 h on day 6, followed by two doses of griseofulvin at 24 h interval (at 09:00 h on day 6 and 7).

[10] = griseofulvin-treated WT parasites vs untreated

Structure (SMILES): COC1=CC(=O)C[C@@H](C)[C@]12Oc1c(Cl)c(OC)cc(OC)c1C2=O [griseofulvin]
- mice protected from CM ([1]; WT-infected C57BL/6 mice, single dose of 2 mg/day i.p. from day 4 until day 8, ~80% of control mice succumbed to CM within day 10): more than 80%
- delay in mortality due to anemia ([1]; griseofulvin-treated WT-infected C57BL/6 mice vs CM-escaped control mice): significant delay
- mice surviving beyond day 24 ([1]; griseofulvin-treated WT-infected mice): around 50%
- mice surviving beyond day 20 ([1]; griseofulvin-treated WT-infected mice, anemia mortality in CM-escaped control mice within day 17): more than 80%
- growth curves of WT parasites in treated and untreated mice [2]: very much comparable
- decrease in 14C-labelling of free heme [3]: around 60%
- Evans blue extravasation in the brain [4]: less Evans blue extravasation
- intracerebral hemorrhages in brain sections ([5]; H&E): absence of intracerebral hemorrhages
- accumulation of CD3+ T cells in the cerebral vasculature ([5]; immunofluorescence): lack of accumulation
- accumulation of parasites in the cerebral vasculature ([5]; immunofluorescence): lack of accumulation
- Hz content by light microscopy ([6]; Giemsa-stained peripheral smears and paraformaldehyde-fixed pRBCs of treated mice): less Hz content
- decrease in free heme levels in parasites [6, 10]: around 60%
- total Hz content, less than untreated parasites [6, 10]: 50-60%
- plasma heme/hemopexin ratio [7]: comparable to that of the KO-infected mice
- plasma level of Hb [7]: comparable to that of the KO-infected mice
- plasma level of heme [7]: comparable to that of the KO-infected mice
- plasma level of hemopexin [7]: comparable to that of the KO-infected mice
- in vivo parasite growth in humans [8]: did not inhibit the in vivo parasite growth

Structure (SMILES): CCO[C@H]1O[C@@H]2O[C@@]3(C)CC[C@H]4[C@H](C)CC[C@@H]([C@H]1C)[C@@]24OO3 [α,β-arteether]
- peripheral parasitemia in blood smears ([9]; single intramuscular dose of 0.25 mg/mouse on day 6): clearance
- WT-infected mice developing CM ([9]; single intramuscular dose of 0.25 mg/mouse on day 6, parasitemia around 10%): 60-70%
